Measured values taken from US20250282736A1, “SMALL MOLECULE MODULATORS OF HUMAN PREGNANE X RECEPTOR” (ST. JUDE CHILDREN'S RESEARCH HOSPITAL, priority 2022, published 2025).
Read-outs that look alike come from different tables or passages of the source.

What was measured:
hPXR [1] = molecular target: T1, hPXR (Homo sapiens (Human), UniProt O75469); assay: hPXR binding assay; details: for inhibition at 10 µM: read-out: Binding (% inhibition at 10 μM)
hPXR [2] = molecular target: T1, hPXR; assay: cell-based hPXR agonistic assay; details: for Agonist (% activation at 10 μM): rifampicin at 10 μM as 100% activation, DMSO (0.3%) as 0%
hPXR [3] = molecular target: T1, hPXR; assay: cell-based hPXR antagonistic assay; details: for inhibition at 10 µM: read-out: Antagonist (% inhibition at 10 μM)
hPXR [4] = molecular target: T1, hPXR; assay: cell-based hPXR inverse agonistic assay; details: for inhibition at 10 µM: read-out: Inverse agonist (% inhibition at 10 μM)
[5] = read-out: Binding (IC50/μM), hPXR binding assay
[6] = read-out: Agonist (EC50/μM), cell-based hPXR agonistic assay

T1 sequence (O75469 whole entry): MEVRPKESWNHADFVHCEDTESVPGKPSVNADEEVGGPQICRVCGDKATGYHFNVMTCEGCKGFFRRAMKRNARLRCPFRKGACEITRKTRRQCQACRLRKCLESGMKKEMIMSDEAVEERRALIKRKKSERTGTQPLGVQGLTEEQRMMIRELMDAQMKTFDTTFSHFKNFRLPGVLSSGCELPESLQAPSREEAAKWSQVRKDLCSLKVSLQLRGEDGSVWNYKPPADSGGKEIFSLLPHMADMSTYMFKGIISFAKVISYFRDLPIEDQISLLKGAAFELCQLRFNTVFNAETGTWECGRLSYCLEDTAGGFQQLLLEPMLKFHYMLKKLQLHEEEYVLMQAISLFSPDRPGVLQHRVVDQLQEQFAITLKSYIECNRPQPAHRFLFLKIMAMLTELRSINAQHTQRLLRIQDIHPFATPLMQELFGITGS

| SMILES | IC50 (hPXR [1]) | EC50 (hPXR [2]) | Agonist (% activation at 10 μM) (hPXR [2]) | IC50 (hPXR [3]) | IC50 (hPXR [4]) | inhibition at 10 µM (hPXR [1]) | IC50 (hPXR [1]; [5]) | inhibition at 10 µM (hPXR [3]) | inhibition at 10 µM (hPXR [4]) | EC50 (hPXR [2]; [6]) |
| --- | --- | --- | --- | --- | --- | --- | --- | --- | --- | --- |
| COc1ccc(-n2nnc(C(=O)Nc3ccc(C)cc3)c2C)cc1 [E7] | > 30 µM | 0.79 ± 0.26 µM | (29 ± 5)% | > 30 µM | > 30 µM |  |  |  |  |  |
| COc1ccc(-n2nnc(C(=O)Nc3cccc(C)c3)c2C)cc1 [E8] | > 30 µM | > 30 µM |  | > 30 µM | > 30 µM |  |  |  |  |  |
| CCCCOc1ccc(C(C)(C)C)cc1NC(=O)c1nnn(-c2ccc(OC)cc2)c1C [E9] | > 30 µM | > 30 µM |  | > 30 µM | > 30 µM |  |  |  |  |  |
| COc1ccc(-n2nnc(C(=O)Nc3cc(C)ccc3OC)c2C)cc1 [E10] |  | > 30 µM |  | > 30 µM | > 30 µM | 53% | 1.2 ± 0.3 µM |  |  |  |
| COc1ccc(Cl)cc1-n1nnc(C(=O)Nc2cc(C(C)(C)C)cc(C(C)(C)C)c2)c1C [F1] |  | > 30 µM |  | 0.24 µM | 0.066 ± 0.014 µM | 67% | 0.044 ± 0.016 µM | 102% | 93% |  |
| COc1ccc(Cl)cc1-n1nnc(C(=O)Nc2cc(N)cc(C(C)(C)C)c2)c1C [F2, N-(3-amino-5-(tert-butyl)phenyl)-1-(5-chloro-2-methoxyphenyl)-5-methyl-1H-1,2,3-triazole-4-carboxamide] |  | > 30 µM |  | 18.2 ± 11.1 µM | 3.62 ± 1.74 µM | 65% | 7.68 ± 1.45 µM | 56% | 101% |  |
| CCCCNc1cc(NC(=O)c2nnn(-c3cc(Cl)ccc3OC)c2C)cc(C(C)(C)C)c1 [F3] |  | > 30 µM |  | 0.21 µM | 0.062 µM | 83% | 0.12 µM | 104% | 89% |  |
| COc1ccc(Cl)cc1-n1nnc(C(=O)Nc2cc(O)cc(C(C)(C)C)c2)c1C [F4] |  | > 30 µM |  | 1.18 ± 0.21 µM | 0.29 ± 0.18 µM | 84% | 1.64 µM | 104% | 101% |  |
| COc1cc(NC(=O)c2nnn(-c3cc(Cl)ccc3OC)c2C)cc(C(C)(C)C)c1 [F5] |  | > 30 µM |  | 0.48 ± 0.14 µM | 0.18 µM | 40% | 0.14 µM | 103% | 80% |  |
| CCCCOc1cc(NC(=O)c2nnn(-c3cc(Cl)ccc3OC)c2C)cc(C(C)(C)C)c1 [F6] |  | > 30 µM |  | 0.67 ± 0.16 µM | 0.22 µM | 61% | 0.042 ± 0.011 µM | 94% | 65% |  |
| CCC(C)Oc1ccc(C(C)(C)C)cc1NC(=O)c1nnn(-c2cc(Cl)ccc2OC)c1C (stereo not drawn) [F10] |  | 0.36 ± 0.16 µM | (9 ± 1)% | 0.019 µM | > 30 µM | 90% | 0.0076 ± 0.0011 µM | 79% |  |  |
| COc1ccc(C)cc1-n1nnc(C(=O)Nc2ccc(O)c(C(C)(C)C)c2)c1C [G2, N-(3-(tert-butyl)-4-hydroxyphenyl)-1-(2-methoxy-5-methylphenyl)-5-methyl-1H-1,2,3-triazole-4-carboxamide] |  | > 30 µM |  | 0.93 ± 0.11 µM | 0.48 µM | 75% | 1.93 ± 0.3 µM | 108% | 115% |  |
| COc1ccc(C)cc1-n1nnc(C(=O)Nc2ccc(OC)c(C(C)(C)C)c2)c1C [G3] |  | > 30 µM |  | 1.7 µM | 0.82 µM | 71% | 1.08 ± 0.36 µM | 105% | 111% |  |
| COc1ccc(C)cc1-n1nnc(C(=O)Nc2cc(C(C)(C)C)cc(C(C)(C)C)c2)c1C [G4] |  | > 30 µM |  | 0.2 µM | 0.074 ± 0.013 µM | 74% | 0.1 µM | 104% | 101% |  |
| COc1ccc(C)cc1-n1nnc(C(=O)Nc2cc(N)cc(C(C)(C)C)c2)c1C [G5, N-(3-amino-5-(tert-butyl)phenyl)-1-(2-methoxy-5-methylphenyl)-5-methyl-1H-1,2,3-triazole-4-carboxamide] |  | > 30 µM |  | 7.05 ± 3.48 µM | 18.9 ± 3.74 µM | 57% | 5.62 ± 0.49 µM | 79% | 47% |  |
| CCCCNc1cc(NC(=O)c2nnn(-c3cc(C)ccc3OC)c2C)cc(C(C)(C)C)c1 [G6] |  | > 30 µM |  | 0.15 µM | 0.044 ± 0.014 µM | 87% | 0.25 µM | 104% | 79% |  |
| COc1ccc(C)cc1-n1nnc(C(=O)Nc2cc(O)cc(C(C)(C)C)c2)c1C [G7, N-(3-(tert-butyl)-5-hydroxyphenyl)-1-(2-methoxy-5-methylphenyl)-5-methyl-1H-1,2,3-triazole-4-carboxamide] |  | > 30 µM |  | 1.31 ± 0.23 µM | 0.64 µM | 81% | 2.29 ± 0.83 µM | 103% | 75% |  |
| COc1cc(NC(=O)c2nnn(-c3cc(C)ccc3OC)c2C)cc(C(C)(C)C)c1 [G8] |  | > 30 µM |  | 0.64 ± 0.1 µM | 0.2 µM | 57% | 0.53 µM | 109% | 115% |  |
| CCCCOc1cc(NC(=O)c2nnn(-c3cc(C)ccc3OC)c2C)cc(C(C)(C)C)c1 [G9] |  | > 30 µM |  | 0.4 µM | 0.15 ± 0.04 µM | 62% | 0.21 µM | 105% | 96% |  |
| CCC(C)Oc1ccc(C(C)(C)C)cc1NC(=O)c1nnn(-c2cc(C)ccc2OC)c1C (stereo not drawn) [G12] |  | 0.018 µM | (17 ± 1)% | 0.0094 µM | > 30 µM | 92% | 0.0076 ± 0.0031 µM | 73% |  |  |
| CCCCOc1ccc(C(C)(C)C)cc1NC(=O)c1nnn(-c2cc(OC)ccc2F)c1C [H8] |  |  | (48 ± 1)% | > 30 µM | > 30 µM | 18% | 0.053 ± 0.036 µM |  |  | 1.48 ± 0.17 µM |
| CCCCOc1ccc(C(C)(C)C)cc1NC(=O)c1nnn(-c2cc(OC)ccc2Br)c1C [H10] |  | > 30 µM |  | > 30 µM | > 30 µM | 28% | 1.31 µM |  |  |  |
| CCCCOc1ccc(C(C)(C)C)cc1NC(=O)c1nnn(-c2cc(OC)ccc2C)c1C [H11] |  | 1.68 ± 0.34 µM | (16 ± 6)% | > 30 µM | > 30 µM | 10% | 0.12 µM |  |  |  |
| CCCCOc1ccc(C(C)(C)C)cc1NC(=O)c1nnn(-c2cccnc2)c1C [H12] |  |  | (44 ± 4)% | > 30 µM | > 30 µM | 75% | 7.6 ± 2.06 µM |  |  | 4.28 ± 1.36 µM |
| CCCCOc1ccc(C(C)(C)C)cc1NC(=O)c1nnn(-c2ccncc2)c1C [H13] | > 30 µM | > 30 µM |  | > 30 µM | > 30 µM |  |  |  |  |  |
| CCCCOc1ccc(C(C)(C)C)cc1NC(=O)c1nnn(-c2cc(OC)cc(OC)c2)c1C [H16] | > 30 µM |  | (32 ± 4)% | > 30 µM | > 30 µM |  |  |  |  | 2.77 ± 0.47 µM |
